# Data as given in patent US6706880B2 (Research Triangle Institute, priority 1990, dated 2004).
# Where a name gives a salt, the structure may show the parent alone. Read-outs that look alike come from different tables or passages of the source.
# What was measured:
# serotonin transporter = target: T1, serotonin transporter (Rattus norvegicus, UniProt P31652); assay: Inhibition of [3H]paroxetine radioligand binding at the serotonin transporter
# T1 construct: from tissue
# Description: (§1) Illustrative in vitro assays for binding are described in Boja et al Ann. NY Acad. Sci. 654:282-291 (1992), which is incorporated herein by reference in its entirety. […] Alternatively, the compounds may be analyzed by their ability to inhibit reuptake of a labelled neurotransmitter in a sample, in particular, in synaptosomes.
# [1] = target: norepinephrine transporter (UniProt Q9WTR4); assay: Inhibition of [3H]nisoxetine radioligand binding at the norepinephrine transporter
# Description: as §1
# dopamine transporter = dopamine transporter (UniProt P23977); assay type: binding
# Description: as §1
# [2] = 5-HT IC50 for inhibition of radioligand binding, 5-HT=[3H] paroxetine
# [3] = read-out: NEN IC50 for inhibition of radioligand binding, NEN=[3H] nisoxetine
# [4] = read-out: DA IC50 for inhibition of radioligand binding, DA=[3H]WIN 35,428
# [5] = IC50 5-HT [3H]-paroxatine, Table II
# [6] = read-out: IC50 NE [3H]-nisoxetine, Table II
# [7] = 5-HT=[3H] paroxetine, read-out: 5-HT IC50 for inhibition of radioligand binding
# [8] = IC50 5-HT [3H]-paroxetine, Table IV
# [9] = read-out: IC50 NE [3H]-nisoxetine, Table IV
# [10] = read-out: IC50 DA [3H]-WIN 35,428, Table IV
# [11] = read-out: IC50 NE [3H] Nisoxetine, Table III
# [12] = read-out: IC50 DA [3H] WIN 35,428, Table III
# T1 sequence (P31652 whole entry): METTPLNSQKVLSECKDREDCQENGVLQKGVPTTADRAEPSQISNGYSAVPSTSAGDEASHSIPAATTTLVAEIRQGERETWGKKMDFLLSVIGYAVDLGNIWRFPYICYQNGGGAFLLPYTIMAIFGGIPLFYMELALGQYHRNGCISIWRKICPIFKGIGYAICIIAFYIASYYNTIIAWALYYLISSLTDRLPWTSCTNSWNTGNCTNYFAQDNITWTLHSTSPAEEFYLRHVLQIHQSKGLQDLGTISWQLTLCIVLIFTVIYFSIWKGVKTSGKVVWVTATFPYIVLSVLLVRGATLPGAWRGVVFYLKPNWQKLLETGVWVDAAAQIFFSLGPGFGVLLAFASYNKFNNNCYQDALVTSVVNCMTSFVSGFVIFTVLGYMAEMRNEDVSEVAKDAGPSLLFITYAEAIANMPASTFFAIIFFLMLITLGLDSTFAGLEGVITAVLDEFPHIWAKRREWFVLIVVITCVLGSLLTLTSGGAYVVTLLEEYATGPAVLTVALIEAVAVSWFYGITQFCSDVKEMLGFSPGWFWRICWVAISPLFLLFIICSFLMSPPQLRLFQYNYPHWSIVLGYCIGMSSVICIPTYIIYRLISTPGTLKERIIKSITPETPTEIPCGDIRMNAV
Structure (SMILES),IC50 (serotonin transporter; [2]) [nM],"IC50 [1, 3] [nM]",IC50 (dopamine transporter; [4]) [nM],also measured
CCOC(=O)CN1C2CCC1C(C(=O)OC)C(c1ccc(Cl)cc1)C2 (stereo not shown) [RTI-4229-251],10.1,114,1.93,–
"Cc1cc([C@H]2[C@@H](c3ccc(Cl)cc3)C[C@@H]3CC[C@H]2N3C)on1 [RTI-165, 3β-(4-Chlorophenyl)-2β-(3-methylisoxazol-5-yl)tropane Hydrochloride]",–,–,–,"IC50 (serotonin transporter; [5]): 572 ± 58 nM; IC50 [1, 6]: 181 ± 12 nM; IC50 (dopamine transporter; read-out: IC50 DA [3H]-WIN 35,428, Table II): 0.59 ± 0.04 nM"
CCCc1ccc(C2CC3CCC(C2C(=O)OC)N3C)cc1 (stereo not shown) [RTI-4229-282],–,3920,68.5,IC50 (serotonin transporter; [7]): 70.4 nM
COC(=O)C1C(c2ccc(F)cc2)CC2CCC1N2C (stereo not shown) [RTI-4229-286],5060,1230,–,–
CN1C2CCC1C(C(=O)NCO)C(c1ccc(Cl)cc1)C2 (stereo not shown) [RTI-4229-146],–,144,2.05,IC50 (serotonin transporter; [7]): 98 nM
Cc1ccc(OC(=O)C2C(c3ccc(Cl)cc3)CC3CCC2N3C)cc1 (stereo not shown) [RTI-4229-206],–,1280,27.4,IC50 (serotonin transporter; [7]): 1200 nM
CN1C2CCC1C(C(=O)OCCc1ccc(N)c(I)c1)C(c1ccc(Cl)cc1)C2 (stereo not shown) [RTI-4229-77],–,2250,2.51,–
COC(=O)C1C(c2ccc3ccccc3c2)CC2CCC1N2C (stereo not shown) [RTI-4229-319],11.4,70.2,1.1,–
Cc1ccc(C2CC3CCC(C2CN(C)C)N3C)cc1 (stereo not shown) [RTI-4229-132],208,137,3.48,"IC50 (serotonin transporter; [8]): 208 ± 18 nM; IC50 [1, 9]: 137 ± 11 nM; IC50 (dopamine transporter; [10]): 3.48 ± 0.11 nM"
CCC#Cc1ccc(C2CC3CCC(N3)C2C(=O)OC)cc1 (stereo not shown) [RTI-4229-307],3.16,116,6.11,–
CC(C)c1cc([C@@H]2C3CCC(C[C@@H]2c2ccc(Cl)cc2)N3C)on1 (stereo partly shown) [RTI-4229-335],2320,954,1.19,–
CN1C2CCC1C(C(=O)OC1CC1)C(c1ccc(Cl)cc1)C2 (stereo not shown) [RTI-4229-190],–,235,0.96,IC50 (serotonin transporter; [7]): 168 nM
Cc1noc(C2C(c3ccc(Cl)cc3)CC3CCC2N3C)n1 (stereo not shown) [RTI-4229-125],2580,363,–,–
CN1[C@H]2CC[C@@H]1[C@@H](CO)[C@@H](c1ccc(Cl)cc1)C2 [RTI-93],–,–,–,"IC50 (serotonin transporter; [8]): 204 ± 16 nM; IC50 [1, 9]: 43.8 ± 6.4 nM; IC50 (dopamine transporter; [10]): 1.53 ± 0.15 nM"
COC(=O)[C@@H]1C2CCC(C[C@@H]1c1ccc(Cl)c(Cl)c1)N2C (stereo partly shown) [RTI-4229-111],3.13,18,0.79,–
COC(=O)C1C2CCC(CC1c1ccc(F)cc1)N2 (stereo not shown) [RTI-4229-142],–,18.8,4.39,IC50 (serotonin transporter; [7]): 68.6 nM
CN1C2CCC1C(COc1ccc(I)cc1)C(c1ccc(Cl)cc1)C2 (stereo not shown) [RTI-4229-116],1230,968,33,–
CCc1ccc(C2CC3CCC(N3)C2C(=O)OC)cc1 (stereo not shown) [RTI-4229-173],–,122,49.9,IC50 (serotonin transporter; [7]): 8.13 nM
CCC(CC)OC(=O)C1C(c2ccc(C)cc2)CC2CCC1N2C (stereo not shown) [RTI-4229-127],–,3440,19,IC50 (serotonin transporter; [7]): 4500 nM
COC(=O)[C@@H]1C2CCC(C[C@@H]1c1ccc(I)cc1)N2 (stereo partly shown) [RTI-4229-98],0.36,11,0.69,–
CCc1ccc(C2CC3CCC(N3)C2C(=O)OC)cc1I (stereo not shown) [RTI-4229-353],–,148,331,"IC50 (serotonin transporter; [7]): 0.69 nM; potency at the serotonin site (serotonin transporter; in words): highly potent; selectivity relative to the dopamine and norepinephrine sites (serotonin transporter; in words): selective; IC50 (serotonin transporter; read-out: IC50 5-HT [3H] Paroxetine, Table III): 0.69 ± 0.07 nM; IC50 [1, 11]: 148 ± 9.2 nM; IC50 (dopamine transporter; [12]): 331 ± 17 nM"
CC(C)OC(=O)C1C2CCC(CC1c1ccc(I)cc1)N2 (stereo not shown) [RTI-4229-153],3.59,132,1.06,–

Structure (SMILES),IC50 (serotonin transporter; [2]) [nM],"IC50 [1, 3] [nM]",IC50 (dopamine transporter; [4]) [nM],also measured
CCc1ccc(C2CC3CCC(C2C(=O)OC)N3C)cc1 (stereo not shown) [RTI-4229-83],–,–,55,IC50 (serotonin transporter; [7]): 28.4 nM
COC(=O)C1CN2C3CCC2C(C1=O)C(c1ccc(Cl)cc1)C3 (stereo not shown) [RTI-4229-242],227,–,–,"IC50 ([1]; NEN=[3H] nisoxetine, read-out: NEN IC50 for inhibition of radioligand binding): 510 nM; IC50 (dopamine transporter; DA=[3H]WIN 35,428, read-out: DA IC50 for inhibition of radioligand binding): 7.57 nM"
Fc1ccc(C2CC3CCC(N3)C2COc2ccc3c(c2)OCO3)cc1 (stereo not shown) [RTI-4229-274],5.62,14.4,3.96,–
Cc1ccc(C2CC3CCC([C@@H]2c2nc(-c4ccccc4)no2)N3C)cc1 (stereo partly shown) [RTI-4229-152],–,22700,494,–
CN1C2CCC1[C@@H](CCl)[C@@H](c1ccc(Cl)cc1)C2 (stereo partly shown) [RTI-4229-108],98,129,2.64,"IC50 (serotonin transporter; [8]): 98 ± 8.7 nM; IC50 [1, 9]: 129 ± 15 nM; IC50 (dopamine transporter; [10]): 2.64 ± 0.31 nM"
CCc1ccc(C2CC3CCC(N3)C2C(=O)OCc2ccccc2)cc1 (stereo not shown) [RTI-4229-338],7.41,3370,1100,–
COC(=O)C1C(c2ccc(Cl)cc2)CC2CCC1N2C (stereo not shown) [RTI-4229-31],–,–,–,IC50 (serotonin transporter; [7]): 44.5 nM
COC(=O)C1C(c2ccc(F)c(C)c2)CC2CCC1N2C (stereo not shown) [RTI-4229-96],76,520,2.95,–
CN1C2CCC1C(C(=O)N1CCCC1)C(c1ccc(Cl)cc1)C2 (stereo not shown) [RTI-4229-147],12400,3950,1.38,–
Cc1ccc(C2CC3CCC(C2C(=O)OC(C)C)N3C)cc1 (stereo not shown) [RTI-4229-117],–,1930,6.45,IC50 (serotonin transporter; [7]): 6090 nM
COc1ccc(-c2cc([C@@H]3C4CCC(C[C@@H]3c3ccc(Cl)cc3)N4C)on2)cc1 (stereo partly shown) [RTI-4229-346],5880,762,1.57,–
COC(=O)CC1C(c2ccc(C)cc2)CC2CCC1N2C (stereo not shown) [RTI-4229-241],618,124,1.02,"IC50 (serotonin transporter; [8]): 618 ± 28 nM; IC50 [1, 9]: 124 ± 3.56 nM; IC50 (dopamine transporter; [10]): 1.02 ± 0.06 nM"
CN1C2CCC1C(c1nc(-c3ccccc3)no1)C(c1ccc(Cl)cc1)C2 (stereo not shown) [RTI-4229-130],–,245,1.62,IC50 (serotonin transporter; [7]): 195 nM
COC(=O)C1C2CCC(CC1c1ccc(C)c(I)c1)N2 (stereo not shown) [RTI-4229-279],1.06,74.3,5.96,"IC50 (serotonin transporter; IC50 5-HT [3H] Paroxetine, Table III): 1.06 ± 0.39 nM; IC50 [1, 11]: 74.3 ± 3.8 nM; IC50 (dopamine transporter; [12]): 5.98 ± 0.48 nM"
CN1[C@H]2CC[C@@H]1[C@@H](CO)[C@@H](c1ccc(Br)cc1)C2 [RTI-99],–,–,–,IC50 (serotonin transporter; [8]): 51 ± 4.6 nM; IC50 (dopamine transporter; [10]): 1.49 ± 0.06 nM
CN1C2CCC1C(CO)C(c1ccc(I)cc1)C2 (stereo not shown) [RTI-4229-101],26,–,2.2,IC50 (serotonin transporter; [8]): 26 ± 3.2 nM; IC50 (dopamine transporter; [10]): 2.2 ± 0.19 nM
COC(=O)C1C2CCC(C[C@H]1c1ccccc1)N2C (stereo partly shown) [RTI-4229-140],–,2080,101,–
COC(=O)C1C(c2ccc(Br)cc2)CC2CCC1N2C (stereo not shown) [RTI-4229-51],240,–,1.69,–
COC(=O)C1C2CCC(CC1c1ccc(C(C)C)cc1)N2 (stereo not shown) [RTI-4229-330],–,–,310,IC50 (serotonin transporter; [7]): 15.1 nM
"CN1[C@H]2CC[C@@H]1[C@@H](c1nnn[nH]1)[C@@H](c1ccc(Cl)cc1)C2 [RTI-163, 3β-(4-Chlorophenyl)-tropane-2β-tetrazole]",–,–,–,"IC50 (serotonin transporter; [5]): 5460 ± 64 nM; IC50 [1, 6]: 17400 nM"
CN1[C@H]2CC[C@@H]1[C@@H](CO)[C@@H](c1ccc(F)cc1)C2 [RTI-100],–,–,–,IC50 (serotonin transporter; [8]): 4740 ± 335 nM; IC50 (dopamine transporter; [10]): 47 ± 4.6 nM
COC(=O)C1C(c2ccc(C)cc2)CC2CCC1N2C (stereo not shown) [RTI-4229-32],–,60,1.71,–
